US20100093641A1, “SILK PROTEIN-MIMICKING PEPTIDES AND COMPOSITIONS FOR PREVENTING OR TREATING CRANIAL NEUROPATHIES COMPRISING THE SAME” (BRAINGUARD CO.,LTD., priority 2006, published 2010)
No end group written: not given here.

Tests used:
dopaminergic neurons = assay: Dopaminergic neuronal cell death induced by 6-OHDA, methyl green histochemical staining; assay type: in vivo; conditions: 6-OHDA injected mice; SMPs 5 mg/kg intraperitoneally for 2 weeks; FIG. 1
Description: To analyze neuroprotective effects of the present peptides SMPs, their influence on the death of dopaminergic neurons, a main cause of Parkinson's disease, was tested. 6-OHDA (6-hydroxydopamine) was injected into brain tissues using a stereotaxic system and the death of dopaminergic neurons was observed by histochemcial staining.
5-week old male mice (SAMTAKO, Korea) were used. Four-week old mice were purchased and adapted for one week, followed by inducing the death of neuronal cells using a stereotaxic system (KOFT, CA, USA). In these experiments, 6-OHDA (3 μg/μl in normal saline) was injected into the desired region (0.0 mm posterior to bregma; 2.0 mm lateral to midline; 3.0 mm ventral to the dura) by use of the stereotaxic system, resulting in establishment of animal models. 6-OHDA was injected into substantial nigra in which neurites of dopminergic neurons are connected and sustained death of dopminergic neurons is well induced. After injection of 6-OHDA, 5 mg/kg of SMPs were intraperitoneally administered for 2 weeks. Thereafter, the test mice were fixed using 4% paraformaldehyde. Following the dissection of brain tissues from test mice, they were washed with PBS containing 4% paraformaldehyde for 24 hr and then dehydrated for 4 days using 15%, 20%, 25% and 30% sucrose solutions. The brain tissues were sliced by a freezing microtome. […]

[1] = system: Alzheimer's disease animal models; assay: Passive avoidance test after amyloid beta injection; assay type: in vivo, rat; conditions: amyloid beta injected; 5 mg/kg i.p. for 2 weeks; FIG. 4
Description: This experiment was carried out according to the passive avoidance test to examine whether the SMPs prevents the declines in learning and memory abilities by neurotoxic substances. Before performing learning test, the amyloid beta protein was injected into animals through the ventral lateral region using a stereotaxic system, resulting in establishing Alzheimer's disease animal models. 3-day later, 5 mg/kg of SMPs were intraperitoneally administered for 2 weeks. Automated shuttle box (Model PACS-30, Columbus Instruments International Company) was used as test device. The shuttle box was divided into two rooms with the same area (19″ L×9″ W×10.875″ H) by middle door (3″ L×2.625″ W), and their floors were equipped with current-generating device. Each room might be lighted a 20 W light bulb on hinged plexiglass lid. A white rat might enter a dark room through the door. Noise was control below 60 dB and the test was performed in the dark room. The rat was initially placed in a lighted room and moved to a dark room when the door was opened. At this time, the door was automatically closed and light was turned off. […] Two weeks after injection of the amyloid beta protein through the ventral lateral region (8 nmol/ 5 μl in normal saline), the rat was placed in the lighted room, and time required for the rat to move to the dark room was measured. […]

[2] = system: PD animal models having apoptotic dopaminergic neuronal cells by 6-OHDA; assay: Amphetamine-induced asymmetric rotation in 6-OHDA Parkinson's disease animal models; assay type: in vivo; conditions: 6-OHDA mice; SMPs 5 mg/kg intraperitoneally for 2 weeks; FIG. 2
Description: The protection efficacy of the present peptides was tested by behavior experiments using animal models. The mice with damaged dopaminergic neurons by 6-OHDA were administered with amphetamine to induce asymmetric rotation. Then, the present peptides were examined to recover normal states.
5-week old male mice (SAMTAKO, Korea) were used. Four-week old mice were purchased and adapted for one week, followed by establishing animal models using a stereotaxic system (KOFT, CA, USA). In these experiments, 6-OHDA (3 μg/μl in normal saline) was injected into the desired region (0.0 mm posterior to bregma; 2.0 mm lateral to midline; 3.0 mm ventral to the dura) by use of the stereotaxic system, resulting in establishment of animal models. 6-OHDA was injected into substantial nigra in which neurites of dopminergic neurons are connected and sustained death of dopminergic neurons is well induced. Two weeks after 6-OHDA injection, animals were tested for amphetamine-induced turning behavior (amphetamine at 0.1 mg/kg i.p.). The mice were tested for […]. Animals with net rotational asymmetry of at least 400 full turns were selected for test. 5 mg/kg of SMPs were intraperitoneally administered for 2 weeks and their effects were examined by behavior tests. The asymmetric rotation was rapidly relieved with the lapse of time.

SK-N-SH cells [3] = assay: MTT reduction cell viability against amyloid beta; assay type: cell-based, human; conditions: 10 fM for 2 hr before amyloid beta, 48 hr; FIG. 6b
Excerpt: The survival rate and nuclear fragmentation of neuronal cells indicating apoptosis of neuron were examined to verify the neuroprotective effects of SMPs against neurotoxic effects of the amyloid beta protein. For identifying mechanisms governing the protective effects against amyloid beta in animal tests, neurotoxic effects and nuclear damages in neuronal cell lines were examined. The substance “cosmo” used in this experiment was obtained by a preparation process identical to that for the substance MD.
The MTT reduction analysis was carried out. The human neuroblastoma cells, SK—N—SH cells (ATCC) were plated on PEI-coated 96-well plates at a density of 40,000 cells/well. The cells were cultured in DMEM supplemented with 10% FBS (fetal bovine serum). 2-hr before experiments, the medium was changed with low serum medium (DMEM with 1% FBS) and the cells were incubated with each test substance. […] Formazan precipitates formed by MTT reduction were dissolved in the solution (0.1 N HCl in anhydrous isopropanol), and absorbance at 570 nm was determined by ELISA
Reader. The value of the control group (only containing solvent) was determined as 100% and that of 0.9% Triton X-100-treated group as 0%. The value of each sample was relatively determined with referring the reference values.

SK-N-SH cells [4] = assay: Mitochondrial membrane potential by TMRE staining against amyloid beta; assay type: cell-based, human; conditions: 10 fM for 2 hr, then 20 μM amyloid beta for 6 hr; FIGS. 8a-8c
Excerpt: We examined the influence of the present peptides on subcellular mitochondria to play a crucial role in cellular energy generation. It have been already reported that the amyloid beta protein induces elevation of reactive oxygen species in cells and simultaneously results in nuclear fragmentation, dysfunction of mitochondrial membrane and loss of mitochondrial functions. In this regard, we examined the influence of the present peptides on mitochondrial functions relating closely to cell viability.
Using a fluorescent staining with TMRE (tetramethyl rhodamine-ethylester, Molecular Probe), the disruption of mitochondrial membrane potential was measured. The positively charged TMRE is penetrated into mitochondrial membrane with help of mitochondrial membrane potential, and the fluorescent intensities indicate the maintenance of mitochondrial membrane potential. SK—N—SH cells (ATCC) were first treated with 10 fM SMPs for 2 hr and then with 20 μM amyloid beta protein for 6 hr. Afterwards, cells were incubated for 15 min at 37° C. with 100 nM TMRE and the fluorescent intensities were measured using a fluoremetry at excitation wavelength of 549 nm and emission wavelength of 574 nm. The fluorescent images were taken using a fluorescence microscope (Olympus IX70) and CCD camera.

SK-N-SH neuronal cells = assay: Neuronal damage caused by high glucose level; assay type: cell-based, human; conditions: 35 mM glucose, 3 hr; FIG. 9a
Description: Diabetes characterized by high level of glucose causes events to damage cells and tissues. This experiment is to analyze neuroprotective activities of SMPs on SK—N—SH neuronal cells in high level of glucose (35 mM).

p-Akt = p-Akt level on electrophoresis under high glucose; assay type: cell-based, human; conditions: 35 mM glucose; FIG. 9b
Description: To identify molecular mechanisms governing neuroprotective activities of the present peptides on apoptosis of neuronal cells caused by high glucose level, p-Akt and p-JNK were analyzed on electrophoresis.

SK-N-SH cells [5] = assay: Nuclear fragmentation by Hoechst 33258 staining against amyloid beta; assay type: cell-based, human; conditions: 10 fM for 2 hr, then 20 μM amyloid beta for 24 hr; FIG. 6a
Description: The morphological changes of nuclear chromosomes by amyloid beta were observed by staining with DNA-binding fluorochrome bis-benz (Hoechst 33258 dye). SK—N—SH cells were incubated with 10 fM SMPs for 2 hr and then with 20 μM amyloid beta for 24 hr. 0.5-3.0×10^6 cells treated were centrifuged at 300×g for 10 min and washed with PBS, followed by fixation with 50 μl paraformaldehyde for 10 min at room temperature. After washing with PBS, cells were incubated with 16 μg/ml bis-benzimide in PBS (15 μl) for 15 min at room temperature and their 10 μl-aliquot was placed on a slid glass, followed by the observation of apoptotic nuclear chromosome under a fluorescence microscope.

SK-N-SH cells [6] = assay: Reactive oxygen species by DCF-DA staining against amyloid beta; assay type: cell-based, human; conditions: 10 fM for 2 hr, then 20 μM amyloid beta; FIG. 7a
Description: For identifying molecular mechanisms governing neuroprotective effects of the present peptides, reactive oxygen species (ROS) known to involve in neurotoxicity of amyloid beta were analyzed. Using a DCF-DA staining method, quantitative determination of reactive oxygen species was performed and microscopic observation was performed.
SK—N—SH cells (ATCC) were first treated with 10 fM SMPs for 2 hr and then with 20 μM amyloid beta protein. Afterwards, cells were incubated for 30 min at 37° C. with 10 μM DCF-DA (6-carboxy-2′,7′-dichloro-dihydrofluoresceine diacetate, dicarboxym-ethylester) dissolved in HCSS buffer solution (20 mM HEPES, 2.3 mM CaCl2, 120 mM NaCl, 10 mM NaOH, 5 mM KC1, 1.6 mM MgCl2, 15 mM glucose) and 2% Pluronic F-127 (suspension additive).

COc1ccc2[nH]cc(CCNC(C)=O)c2c1 [melatonin]
prevention of death of dopaminergic neurons (neurotoxicity of 6-OHDA) (dopaminergic neurons): effectively prevented | decline in learning and memory abilities (passive avoidance) [1]: prevent the decline in learning and memory abilities | relief of behavior disorders (amphetamine-induced asymmetric rotation) [2]: contribute to the relief of behavior disorders

GAGAGVGY [SMP-1, GAGAGVGY]
inhibition of apoptosis of neuronal cells (cell viability, MTT) (SK-N-SH cells [3]): dramatically inhibit apoptosis of neuronal cells | abnormality of mitochondrial membrane (TMRE fluorescence) (SK-N-SH cells [4]): little or no abnormality of mitochondrial membrane | inhibition of apoptosis caused by high glucose level (SK-N-SH neuronal cells): effectively inhibits apoptosis | level of p-Akt (p-Akt): highest level of p-Akt | nuclear fragmentation (SK-N-SH cells [5]): greatly decreased | levels of reactive oxygen species (SK-N-SH cells [6]): decrease in levels of reactive oxygen species at similar extent

GVGAGY [SMP-4, GVGAGY]
inhibition of apoptosis of neuronal cells (cell viability, MTT) (SK-N-SH cells [3]): dramatically inhibit apoptosis of neuronal cells | abnormality of mitochondrial membrane (TMRE fluorescence) (SK-N-SH cells [4]): little or no abnormality of mitochondrial membrane | inhibition of apoptosis caused by high glucose level (SK-N-SH neuronal cells): effectively inhibits apoptosis | nuclear fragmentation (SK-N-SH cells [5]): greatly decreased | effect on reactive oxygen species compared to oligo 1 (SK-N-SH cells [6]): a little enhanced effects compared to the oligo 1 | levels of reactive oxygen species (SK-N-SH cells [6]): decrease in levels of reactive oxygen species at similar extent
